These results are taken from patent US9000183B2, “Cyclohexane-1,2′-indene-1′,2″-imidazol compounds and their use as BACE inhibitors” (AstraZeneca AB, priority 2012, dated 2015).

Test [1] concerns the target T1, human β-Secretase (Homo sapiens (Human), UniProt P56817). In words: TR-FRET assay. It is filed as biochemical. The protocol:
The β-secretase enzyme used in the TR-FRET is prepared as follows:
(§1) The cDNA for the soluble part of the human β-Secretase (AA 1-AA 460) was cloned using the ASP2-Fc10-1-IRES-GFP-neoK mammalian expression vector. The gene was fused to the Fc domain of IgG1 (affinity tag) and stably cloned into HEK 293 cells.
(§2) The enzyme (truncated form) was diluted to 6 μg/mL (stock 1.3 mg/mL) and the TruPoint BACE1 Substrate to 200 nM (stock 120 μM) in reaction buffer (NaAcetate, chaps, triton x-100, EDTA pH4.5). Enzyme and compound in dimethylsulphoxide (final DMSO concentration 5%) was mixed and pre-incubated for 10 minutes at RT. Substrate was then added and the reaction was incubated for 15 minutes at RT. The reaction was stopped with the addition of 0.35 vol Stop solution (NaAcetate, pH 9). The fluorescence of the product was measured on a Victor II plate reader with excitation wavelengths of 340-485 nm and emission wavelengths of 590-615 nm. […] The dimethylsulphoxide control, instead of test compound, defined the 100% activity level and 0% activity was defined by wells lacking enzyme (replaced with reaction buffer) or by a saturating dose of a known inhibitor, 2-amino-6-[3-(3-methoxyphenyl)phenyl]-3,6-dimethyl-5H-pyrimidin-4-one.

The test system of test [2] is sAPPβ release, SH-SY5Y cells. Kind of test: sAPPβ release assay. It counts as cell-based. The conditions noted are these: 17 h incubation. The protocol: Thaw cells and seed at a conc. of around 10000 cells/well in DMEM/F-12 with Glutamax, 10% FCS and 1% non-essential amino acids to a 384-well tissue culture treated plate, […] cell susp/well. The cell plates were then incubated for 7-24 h at 37° C., 5% CO2. The cell medium was removed, followed by addition of 30 μL compound diluted in DMEM/F-12 with Glutamax, 10% FCS, 1% non-essential amino acids and 1% PeSt to a final conc. of 1% DMSO. The compounds were incubated with the cells for 17 h (overnight) at 37° C., 5% CO2. Meso Scale Discovery (MSD) plates were used for the detection of sAPPβ release. MSD sAPPβ plates were blocked in 1% BSA in Tris wash buffer (40 μL/well) for 1 h on shake at r.t. and washed 1 time in Tris wash buffer (40 μL/well). 20 μL of medium was transferred to the pre-blocked and washed MSD sAPPβ microplates, and the cell plates were further used in an ATP assay to measure cytotoxicity. The MSD plates were incubated with shaking at r.t. for 2 h and the media discarded. 10 μL detection antibody was added (1 nM) per well followed by incubation with shaking at r.t. for 2 h and then discarded. 40 μL Read Buffer was added per well and the plates were read in a SECTOR Imager.

For test [3], the target named is T1, human β-Secretase. In words: Diluted TR-FRET assay. It is filed as biochemical. Conditions: 50 times less enzyme, 6.5 h reaction time; read-out: IC50 in TR-FRET assay (IC50 from the diluted FRET assay). As for the experimental part: as §1, §2
Compounds with a high affinity were further tested in a diluted TR-FRET assay, conditions as described above for the TR-FRET assay, but with 50 times less enzyme and a 6.5 h long reaction time at r.t. in the dark.
In general terms: TR-FRET usually uses a lanthanide donor and a delayed reading to cut background.

Some results are limits rather than exact numbers.

T1 sequence (P56817 22-460): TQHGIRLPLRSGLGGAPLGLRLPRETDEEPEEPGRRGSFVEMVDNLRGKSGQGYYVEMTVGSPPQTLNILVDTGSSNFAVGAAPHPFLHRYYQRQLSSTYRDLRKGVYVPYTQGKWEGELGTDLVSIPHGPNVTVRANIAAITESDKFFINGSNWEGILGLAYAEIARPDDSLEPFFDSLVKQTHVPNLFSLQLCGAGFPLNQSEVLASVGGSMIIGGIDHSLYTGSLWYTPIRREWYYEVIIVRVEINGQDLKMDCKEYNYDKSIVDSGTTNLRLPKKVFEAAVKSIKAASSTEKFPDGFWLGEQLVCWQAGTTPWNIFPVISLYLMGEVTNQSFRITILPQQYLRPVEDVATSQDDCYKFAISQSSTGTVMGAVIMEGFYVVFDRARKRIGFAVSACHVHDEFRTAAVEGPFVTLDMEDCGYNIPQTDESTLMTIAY

`COC1CCC2(CC1)Cc1cc(F)c(Br)cc1C21N=C(C)C(N)=N1` (centres unmarked) [Example 4, 6′-Bromo-5′-fluoro-4-methoxy-5″-methyl-3′H-dispiro[cyclohexane-1,2′-indene-1′,2″-imidazol]-4″-amine]: the midpoint of inhibition against human β-Secretase [1], the IC50, lay at 516 nM. On the same count and under the same terms, next, `CO[C@H]1CC[C@]2(CC1)Cc1cc(C)c(Br)cc1C21N=C(C)C(N)=N1` (some centres unmarked) [Example 1, (1r,4r)-6′-Bromo-4-methoxy-5′,5″-dimethyl-3′H-dispiro[cyclohexane-1,2′-indene-1′,2″-imidazol]-4″-amine]: 1660 nM. In the case of `CO[C@H]1CC[C@]2(CC1)Cc1cc(F)c(-c3cc(F)cc(C#N)c3)cc1C21N=C(C)C(N)=N1` (some centres unmarked) [Example 8, 3-[(1r,4r)-4″-Amino-5′-fluoro-4-methoxy-5″-methyl-3′H-dispiro[cyclohexane-1,2′-indene-1′,2″-imidazol]-6′-yl]-5-fluorobenzonitrile], the IC50 in test [2] (Homo sapiens) worked out at 4.8 nM; against human β-Secretase [1], 23 nM. For `CO[C@H]1CC[C@]2(CC1)Cc1cc(F)c(-c3cncc(Cl)c3)cc1C21N=C(C)C(N)=N1` (some centres unmarked) [Example 7, (1r,4r)-6′-(5-Chloropyridin-3-yl)-5′-fluoro-4-methoxy-5″-methyl-3′H-dispiro[cyclohexane-1,2′-indene-1′,2″-imidazol]-4″-amine] the same measures were 3 nM and 36 nM. Take `CO[C@H]1CC[C@]2(CC1)Cc1cc(F)c(-c3cc(F)cc(C#N)c3)cc1[C@@]21N=C(C)C(N)=N1` (single isomer, unassigned; isomer 1) [9 Isomer 1]: the IC50 in test [2] stood at 7.4 nM; on human β-Secretase [3], 13 nM. For the compound `CO[C@H]1CC[C@]2(CC1)Cc1cc(F)c(-c3cc(Cl)cc(C#N)c3)cc1C21N=C(C)C(N)=N1` (some centres unmarked) [Example 5, 3-[(1s,4s)-4″-Amino-5′-fluoro-4-methoxy-5″-methyl-3′H-dispiro[cyclohexane-1,2′-indene-1′,2″-imidazol]-6′-yl]-5-chlorobenzonitrile], 23 nM corresponded to half-maximal inhibition at human β-Secretase [1] (IC50). As for `CC#Cc1cncc(-c2cc3c(cc2C)C[C@]2(CC[C@@H](OC)CC2)C32N=C(C)C(N)=N2)c1` (some centres unmarked) [Example 2, (1r,4r)-4-Methoxy-5′,5″-dimethyl-6′-[5-(prop-1-yn-1-yl)pyridin-3-yl]-3′H-dispiro[cyclohexane-1,2′-indene-1′,2″-imidazol]-4″-amine], the IC50 in test [2] (Homo sapiens) was 17 nM; at human β-Secretase [3], 15 nM. For the compound `CO[C@H]1CC[C@]2(CC1)Cc1cc(F)c(-c3cc(F)cc(C#N)c3)cc1[C@]21N=C(C)C(N)=N1` (single isomer, unassigned; isomer 2) [9 Isomer 2], on human β-Secretase [1], the IC50 was > 5000 nM. The same measure, in the same setting: next, `CO[C@H]1CC[C@]2(CC1)Cc1cc(F)c(OCCCF)cc1C21N=C(C)C(N)=N1` (some centres unmarked) [Example 10, 5′-Fluoro-6′-(3-fluoropropoxy)-4-methoxy-5″-methyl-3′H-dispiro[cyclohexane-1,2′-indene-1′,2″-imidazol]-4″-amine]: 39 nM. In the case of `CO[C@H]1CC[C@]2(CC1)Cc1cc(C)c(-c3cc(Cl)cc(C#N)c3)cc1C21N=C(C)C(N)=N1` (some centres unmarked) [Example 3, 3-[(1r,4r)-4″-Amino-4-methoxy-5′,5″-dimethyl-3′H-dispiro[cyclohexane-1,2′-indene-1′,2″-imidazol]-6′-yl]-5-chlorobenzonitrile], the results for the IC50 (in test [2] (Homo sapiens); on human β-Secretase [3]) were 12 nM and 24 nM, respectively. For `CO[C@H]1CC[C@]2(CC1)Cc1cc(F)c(-c3cc(Cl)cc(C#N)c3)cc1[C@@]21N=C(C)C(N)=N1` (single isomer, unassigned; isomer 1) [6 Isomer 1], the IC50 at human β-Secretase [3] is 2.4 nM. On to `CO[C@H]1CC[C@]2(CC1)Cc1cc(F)c(-c3cc(Cl)cc(C#N)c3)cc1[C@]21N=C(C)C(N)=N1` (single isomer, unassigned; isomer 2) [6 Isomer 2], for which the IC50 at human β-Secretase [1] was > 4300 nM.

For orientation: IC50 means the concentration that gives 50% inhibition.
